# Measurements from patent US20200206198A1, “CFTR CHANNEL ACTIVATOR FOR USE IN THE TREATMENT AND/OR PREVENTION OF GLUTEN SENSITIVITY CONDITIONS” (priority 2017, published 2020).
# Tested on: PBMC collected from celiac patients
# Test: Bidimensional co-culture of Caco-2 cells and PBMC from celiac patients
# Format: cell-based, human
# Experimental: To translate our findings into the relevant clinical setting, we determined whether CFTR potentiators would prevent the HLA-restricted immune response to gliadin by peripheral blood mononuclear cells (PBMC) collected from celiac patients. PBMC collected from 6 celiac patients and 4 healthy controls, were cultured in the lower compartment of a bidimensional co-culture model in which confluent Caco-2 cells were placed in the upper compartment. Then, Caco-2 cells were challenged with PT gliadin or with a combination of P31-43 and P57-68 (or P57-68 alone as a negative control), as described, and IFN-γ and IL-10 were quantified in the supernatants from the lower compartment.
# Five ml of peripheral blood have been withdrawn from 8 untreated celiac patients (females and males, age range 8-25 years) and from 3 DQ2+ positive not CD affected controls (healthy first-grade relatives of celiac patients). The Ethics Committee of ISS approved the protocol (# CE/12/341), and patients or patients' parents signed the informed consent. Peripheral blood mononuclear cells were isolated using lympholite (Cederlane, UK) density gradient overlaid by heparin blood diluted 1:1 in PBS and centrifuged (20 min at 900 rpm). After being washed three times, PBMCs were resuspended in complete RPMI 1640 supplemented with 25 mM HEPES, 10% (v/v) heat-inactivated FBS, 100 U/ml penicillin, […] streptomycin, and 1% 2 mM 1-glutamine.
# For transwell experiments using polarized Caco-2 cells, 3 weeks prior to the experiment, Caco-2 cells were seeded at a density of 80×10^3 cells×cm^2 on 0.4-μm, 1-cm^2 tissue culture inserts (Costar, Corning Incorporated). Transwell cultures (12-well) with confluent Caco-2 monolayers were used for co-culture with 1 ml PBMC (1.5×10^6 cells/ml) using PBMC medium and kept in an incubator at 37° C. and 5% CO2. Cells were allowed to settle for 1 h before the starting of the experiment. The permeability of the epithelial monolayer was assessed just before the experiments, measuring the transwell electrical resistance between the upper and lower compartments. […]
smiles,measurement,setting,value
"CC(C)(C)c1cc(C(C)(C)C)c(NC(=O)c2c[nH]c3ccccc3c2=O)cc1O [VX-770, N-(2,4-di-tert-butyl-5-hydroxyphenyl)-4-oxo-1,4-dihydroquinoline-3-carboxamide]",effect on IFN-γ production induced by the combination of peptides,celiac PBMC / Caco-2 co-culture,prevented the production of IFN-γ
same,IL-10 levels,"celiac PBMC / Caco-2 co-culture, p<0.01",restored IL-10 levels
same,effect on IL-15 accumulation in the lower compartment,p<0.001 vs peptide combination,prevented
